Measured values from patent US12233129B2, “Methods and compositions for the treatment of cancer” (priority 2019, dated 2025).
Entries after “also recorded” stand apart in the source; their conditions may differ.

What was measured:
Type in all cases: cell-based, human
HCT-116 p53+/+ = assay: MTT cell viability assay
Procedure: (§1) We decided to confirm whether VTD-induced tumor suppression is indeed mediated via the UBXN2A-mot-2-p53 axis (FIG. 18H). After initial verification with WB (FIG. 18A), HCT-116 (p53+/+ and p53 −/−) and LoVo were treated with VTD for 24, 48, and 72 hours (FIG. 18B-D). […] We defined this phenomenon as a delayed cytotoxic response, since it occurs through UBXN2A transcription, as previously described for other anti-cancer agents. […] In the second set of experiments, we treated two stable UBXN2A silenced clones of HCT-116 along with controls with VTD. […] Staurosporine-treated cells were used as a positive control (S4F). […] Finally, to understand the contribution of mot-2 to the anti-cancer mechanism of VTD, we used a mot-2 inhibitor known as MKT-077 [7] along with VTD in well-differentiated SW-48 (WT-p53) colon cancer cells for 72 hours. Due to the critical role of mot-2 in the mitochondria, we could not use a silencing strategy for mot-2 in this set of experiments.
(§2) The viability of cells was calculated as % of control.
(§3) FIG. 18: Veratridine (VTD) functions via the UBXN2A-mot-2-p53 axis. (A) WB confirmed the presence and the absence of p53 protein in HCT-116 p53^(+/+) and HCT-116 p53^(−/−) cancer cell lines, respectively. […] (F) In another set of experiments, UBXN2A-silenced cells were treated with VTD (100, 200, and 300 μM) for 24 hours. Cells were then labelled with Sytox Red followed by flow cytometry analysis. […] (G) SW48 well-differentiated colon cancer cells with WT-p53 were treated with MKT-077 (5 mg/ml), an mot-2 inhibitor, along with VTD for 72 hours. […] (H) This flowchart recapped the sequence of proteins which activate and function upon VTD exposure to decrease cell viability. The data is shown as mean±SEM of three independent experiments (n=3) in triplicate where *p<0.05 using Benferroni's modified student's t-test.

HCT-116 p53−/− = assay: MTT cell viability assay
Procedure: as §1, §2, §3

LoVo [1] = assay: MTT cell viability assay
Procedure: as §1, §2, §3

SW480 = assay: Cell detachment assay and live cell imaging; conditions: mutant p53
Procedure: (§4) Based on the above results, we then hypothesized that VTD-induced UBXN2A leads to apoptosis and cell death mimicking the Tet-on induced-UBXN2A model (FIG. 15). As cell detachment and cell shrinking are ubiquitous aspects of apoptosis, we examined these features in four cancer cell lines: HCT116 (WT-p53), LoVo (WT-p53), SW-480 (mutant-p53), and U2OS (WT-p53), all in the presence of VTD (FIG. 17, S4).
as §2
(§5) FIG. 17: Induction of apoptosis and in vitro cytotoxicity by VTD in a human cancer cell line with different statuses of p53 and mot-2. (A-D) Cells were treated with VTD for 24, 48, and 72 hours. After incubation, dead cells were washed off, and the remaining attached cells were calculated by counting in five random fields using the Axiovert 200 M inverted microscope and AxioVision software (cell detachment assay). The % of cells attached was calculated as % of control cells. […] The data is shown as mean+SEM of three independent experiments (n=3, *p<0.05). (E-K) Cells were plated for 5 days, and the colonies of cells were treated with different concentration of VTD. The colonies of viable cells were stained with crystal violet dye and absorbance, as an index of measurement of colony forming units, was read at 562 nm (clonogenic survival assay). VTD induced a significant decrease in cell viability in a p53- and differentiation grade manner in HCT-116 poorly differentiated cells (E), HCT 116 p53+/−(F), HCT-116 p53−/− (G), LoVo well-differentiated cells (H), SW-480 (K), and two non-colon cancer cells: HepG2 (I) and U2OS (J). The data is shown as mean+SEM of three independent experiments (n=3, *p<0.05). (L) Determination of endogenous levels of mot-2, UBXN2A, HSC70, and p53 proteins in various cancer cell lines using WB. (M) HCT-116 cells were treated with VTD (10 and 30 μM) and cytoplasmic and nuclear fractions were subjected to WB. HSC70 and Orc-2 antibodies were used as cytoplasmic and nuclear markers, respectively.

U2OS = assay: Cell detachment assay and live cell imaging; conditions: dose- and time-dependent
Procedure: as §4, §2, §5

LoVo [2] = assay: Cell detachment assay and live cell imaging; conditions: dose- and time-dependent
Procedure: as §4, §2, §5

HCT-116 = assay: Cell detachment assay and live cell imaging; conditions: dose- and time-dependent
Procedure: as §4, §2, §5

Rictor = assay: Flow cytometry with anti-Rictor antibody in SW480 cells; conditions: VTD 5 days (semi-chronic treatment), N=3
Procedure: In panels A-E, SW480 cells were treated with VTD for 5 days (a semi-chronic treatment) and the cells were collected and subjected to flow-cytometry analysis using anti-Rictor antibody.

SMILES: COc1ccc(C(=O)O[C@H]2CC[C@@]3(C)[C@@H]4CC[C@H]5[C@]6(O)C[C@H](O)[C@@]7(O)[C@@H](CN8C[C@@H](C)CC[C@H]8[C@@]7(C)O)[C@]6(O)C[C@@]53O[C@]24O)cc1OC [VTD, Veratridine]
- cell viability (MTT) (HCT-116 p53+/+; 48 and 72 hours, compared with HCT-116 p53−/−): significantly lower
- cell viability (MTT) (HCT-116 p53+/+; 24 hour treatment): not sufficient to produce any cytotoxic or anti-proliferative effect
- cell viability (MTT) (HCT-116 p53−/−; 48 and 72 hours): started to respond to VTD at higher doses after 48 hours; also recorded: more resistance to VTD's effects
- cell viability (MTT) (HCT-116 p53−/−; 24 hour treatment): not sufficient to produce any cytotoxic or anti-proliferative effect
- cell viability (MTT) (LoVo [1]; 48 and 72 hours): reduction of cell viability reached a maximum at 72 hours; also recorded: highest sensitivity to VTD
- cell viability (MTT) (LoVo [1]; 24 hour treatment, higher doses): significantly decreases the viability
- cell detachment (% of cells attached) (SW480; 24, 48 and 72 hours): no effect on cell detachment; also recorded: not with mutant p53
- cell shrinking and rounding (live cell imaging) (SW480): remain unchanged
- cell detachment (% of cells attached) (U2OS; 24, 48 and 72 hours): significantly increases cell detachment; also recorded: significantly decreases the % of cells attached
- cell shrinking and rounding (live cell imaging) (U2OS): induces cell shrinking and rounding
- cell detachment (% of cells attached) (LoVo [2]; 24, 48 and 72 hours): significantly increases cell detachment; also recorded: significantly decreases the % of cells attached
- cell shrinking and rounding (live cell imaging) (LoVo [2]): induces cell shrinking and rounding
- cell detachment (% of cells attached) (HCT-116; 24, 48 and 72 hours): significantly increases cell detachment; also recorded: significantly decreases the % of cells attached
- cell shrinking and rounding (live cell imaging) (HCT-116): induces cell shrinking and rounding
- level of Rictor proteins (Rictor): significantly decreases Rictor proteins
